{"source": "paper PMC5209312", "about": "“Glycin-rich antimicrobial peptide YD1 from B. amyloliquefaciens, induced morphological alteration in and showed affinity for plasmid DNA of E. coli” (AMB Express, 2017)", "key": {"protease enzymes": {"system": "protease enzymes", "details": "enzymes at 1 and 2 mg/mL", "description": "(§1) The thermal stability of YD1 samples was determined by exposure to 20, 40, 60, 80 and 100 °C for 30 min and to 121 °C/105 kPa for 15 min before analyzing the residual activity. Similarly, pH stability was determined over a range of pH 2–10 using 1 M NaOH or HCl. The effect of protease enzyme on YD1 stability was determined at two different enzyme concentrations (1 and 2 mg/mL)."}, "[1]": {"description": "as §1"}, "VRE 5": {"system": "VRE 5", "format": "cell-based, vancomycin-resistant enterococci", "description": "(§2) The minimal inhibitory concentration (MIC) was determined according to the method described by Weigand et al. ([2008])."}, "VRE 2": {"system": "VRE 2", "format": "cell-based, vancomycin-resistant enterococci", "description": "as §2"}, "[2]": {"system": "Pseudomonas aeruginosa KCTC 1637", "format": "cell-based", "description": "as §2"}, "[3]": {"system": "Bacillus subtilis ATCC 6633", "format": "cell-based", "description": "as §2"}, "[4]": {"system": "Salmonella Typhimurium KCTC 1925", "format": "cell-based", "description": "as §2"}, "[5]": {"system": "Micrococcus luteus ATCC 9341", "format": "cell-based", "description": "as §2"}, "[6]": {"system": "Escherichia coli KCTC 1923", "format": "cell-based", "description": "as §2"}, "[7]": {"system": "Escherichia coli KCTC1923 (E. coli), methicillin-resistant Staphylococcus aureus B15 (MRSA), and vancomycin-resistant enterococci (VRE)", "format": "cell-based", "description": "as §2"}, "[8]": {"system": "Mycobacterium smegmatis ATCC 9341", "format": "cell-based", "description": "as §2"}, "[9]": {"system": "Enterococcus faecalis ATCC 29212", "format": "cell-based", "description": "as §2"}, "[10]": {"system": "Alcaligenes faecalis ATCC 1004", "format": "cell-based", "description": "as §2"}, "VRSA": {"system": "VRSA", "format": "cell-based", "description": "as §2"}, "E. coli spheroplasts": {"system": "E. coli spheroplasts", "format": "cell-based, Escherichia coli", "details": "2 h, 40 µg/mL", "description": "Spheroplasts are gram-negative bacteria in which nearly all of the outer membrane (OM) has been removed. Lysozyme destroys the peptide bonds in peptidoglycan and weakens the cell wall. E. coli was grown in 10 mL of MHB, incubated overnight at 37 °C on a shaker at 180 rpm. Each culture (100 µL) was used to inoculate 20 mL of fresh media and incubated at 37 °C for 2 h at 180 rpm. Spheroplasts were prepared as described by Kikuchi et al. ([2015]).\nRe-suspended spheroplasts and whole cells suspension were adjusted to OD 570 nm of 0.2 and 100 µL of each was added to a clear, flat-bottomed microtiter plate in duplicate wells. Ten microliters of YD1 in 10 mM Tris–HCl buffer (pH 7) was added to test wells for both preparations (spheroplasts and whole cells) at the indicated different final concentrations. To the control, 10 µL of 10 mM Tris–HCl buffer (pH 7) was added in lieu of YD1. The percentage of intact spheroplasts or whole cells was calculated as: =Sample OD at time X/Sample OD at time0×100\nDecrease in the OD of the suspension after addition of a membrane-active agent indicates lysis of spheroplasts."}, "[11]": {"system": "Mycobacterium smegmatis ATCC 9341", "format": "cell-based", "description": "A filter paper disc (8 mm, Toyo Roshi Kaisha, Japan) saturated with antimicrobial sample (40 µL) was placed on the surface of petri dish (87 mm × 15 mm) containing Mueller Hinton Agar (MHA). The plate was incubated at 37 °C, and a clear zone of inhibition surrounding the paper disc was measured in millimeter (mm). […] The titer of the antimicrobial substance solution, in AU/mL, was calculated as (1000/d) D, where D was the dilution factor, and d was the dose, the amount of antimicrobial substance solution added to each spot. AU and the zone of inhibition were measured against Mycobacterium smegmatis ATCC 9341 while optimizing CBSYD1 media.", "remark": "listed apart in the source"}, "MRSA B15": {"system": "MRSA B15", "format": "cell-based, methicillin-resistant Staphylococcus aureus", "details": "method of Wiegand et al. 2008", "description": "as §2"}, "[12]": {"system": "Staphylococcus aureus KCTC 1928", "experiment": "MIC determination", "format": "cell-based", "details": "method of Wiegand et al. 2008", "description": "as §2"}}, "note": "Like-named read-outs stand apart in the source and are kept apart here. Ends that are not written are not given here."}
{"substance": "APKGVQGPNG [YD1, Ala-Pro-Lys-Gly-Val-Gln-Gly-Pro-Asn-Gly]", "values": [{"measurement": "effect of protease enzymes on antimicrobial activity", "setting": "protease enzymes", "result": "failed to alter"}, {"measurement": "thermal stability (activity)", "setting": "[1]; at or above 100 °C (100 °C 30 min; 121 °C/105 kPa 15 min)", "result": "decreased sharply"}, {"measurement": "pH stability (residual activity)", "setting": "[1]; pH 4–9, tested pH 2–10 with 1 M NaOH or HCl", "result": "completely stable"}, {"measurement": "thermal stability (residual activity)", "setting": "[1]; up to 80 °C, 30 min exposure", "result": "completely stable"}, {"measurement": "MIC", "setting": "VRE 5", "result": 64, "unit": "µg/mL"}, {"measurement": "MIC", "setting": "VRE 2", "result": 64, "unit": "µg/mL"}, {"measurement": "MIC", "setting": "[2]; KCTC 1637", "result": 16, "unit": "µg/mL"}, {"measurement": "MIC", "setting": "[3]; ATCC 6633", "result": 64, "unit": "µg/mL"}, {"measurement": "MIC", "setting": "[4]; KCTC 1925", "result": 32, "unit": "µg/mL"}, {"measurement": "MIC", "setting": "[5]; ATCC 9341", "result": 64, "unit": "µg/mL"}, {"measurement": "MIC", "setting": "[6]; KCTC 1923", "result": 8, "unit": "µg/mL"}, {"measurement": "MIC (range over E. coli KCTC1923, MRSA B15 and VRE)", "setting": "[7]", "result": "8 to 64", "unit": "µg/mL"}, {"measurement": "MIC", "setting": "[8]; ATCC 9341", "result": 8, "unit": "µg/mL"}, {"measurement": "MIC", "setting": "[9]; ATCC 29212", "result": 64, "unit": "µg/mL"}, {"measurement": "MIC", "setting": "[10]; ATCC 1004", "result": ">128", "unit": "µg/mL"}, {"measurement": "MIC", "setting": "VRSA", "result": ">128", "unit": "µg/mL"}, {"measurement": "intact surviving spheroplasts", "setting": "E. coli spheroplasts", "result": "> 88", "unit": "%"}, {"measurement": "clear zone of inhibition", "setting": "[11]", "result": "up to 16 mm"}]}
{"substance": "Bacitracin [reference compound]", "values": [{"measurement": "MIC", "setting": "VRE 5; VRE 5, method of Wiegand et al. 2008", "result": 64, "unit": "µg/mL"}, {"measurement": "MIC", "setting": "VRE 2; VRE 2, method of Wiegand et al. 2008", "result": 32, "unit": "µg/mL"}, {"measurement": "MIC", "setting": "MRSA B15", "result": 64, "unit": "µg/mL"}, {"measurement": "MIC", "setting": "[12]", "result": ">128", "unit": "µg/mL"}, {"measurement": "MIC", "setting": "[2]; Pseudomonas aeruginosa KCTC 1637, method of Wiegand et al. 2008", "result": ">128", "unit": "µg/mL"}, {"measurement": "MIC", "setting": "[3]; Bacillus subtilis ATCC 6633, method of Wiegand et al. 2008", "result": 64, "unit": "µg/mL"}, {"measurement": "MIC", "setting": "[4]; Salmonella Typhimurium KCTC 1925, method of Wiegand et al. 2008", "result": 64, "unit": "µg/mL"}, {"measurement": "MIC", "setting": "[5]; Micrococcus luteus ATCC 9341, method of Wiegand et al. 2008", "result": 64, "unit": "µg/mL"}, {"measurement": "MIC", "setting": "[6]; Escherichia coli KCTC 1923, method of Wiegand et al. 2008", "result": ">128", "unit": "µg/mL"}, {"measurement": "MIC", "setting": "[8]; Mycobacterium smegmatis ATCC 9341, method of Wiegand et al. 2008", "result": ">128", "unit": "µg/mL"}, {"measurement": "MIC", "setting": "[9]; Enterococcus faecalis ATCC 29212, method of Wiegand et al. 2008", "result": 2, "unit": "µg/mL"}, {"measurement": "MIC", "setting": "[10]; Alcaligenes faecalis ATCC 1004, method of Wiegand et al. 2008", "result": ">128", "unit": "µg/mL"}, {"measurement": "MIC", "setting": "VRSA; VRSA, method of Wiegand et al. 2008", "result": ">128", "unit": "µg/mL"}]}
